Among the data in a melting point compilation (Tetko et al.; mined from patent text by program, amines drawn as free bases though some values may be those of a salt) are melting point values, retold here.

Where only a bound is given, the exact number is not on record here.

Turning to `COC(=O)c1cc(CCCNCc2ccccc2)ccc1OCc1ccccc1`, the melting point (as a rule, the temperature of the solid-liquid transition) fell in the range of 75 to 77 °C.

For `CC(C)CNc1c2c(nc3cn[nH]c13)CCCC2`, the melting point fell in the range of 124 to 127 °C.

`CONC(=O)c1nsc2ccc(-n3c(=O)cc(C(F)(F)F)n(C)c3=O)cc12`: the melting point fell in the range of 125 to 127 °C.

Take `CC(=O)Nc1c(N)cc(C(=O)O)c(O)c1Br`: the melting point fell in the range of 210 to 211 °C.

Compound `Cc1nc(-c2c(Cl)cc(C(F)(F)F)cc2Cl)[nH]c1C` returned a melting point of 281 to 282 °C.

Consider `O=C(O)C=CC1(Cc2ccccc2)C=CC=C(c2ccccc2)C1` (stereo not given), for which the melting point lay within 165 to 174 °C.

`COc1ccc(C(=O)N[C@H]2CCN(C)C[C@H]2c2ccccc2)cc1` (relative stereo) registered a melting point of 165 to 166 °C.

For the compound `COCc1ccc2c(c1)C=Cc1cc(C)ccc1C2c1cn(Cc2nc(C(=O)O)cs2)c(=O)[nH]c1=S` (stereo not given), the melting point came to 140 °C.

For the compound `O=C(O)Cc1ccc2c(c1)sc1c(Cl)cccc12`, the melting point is 226 to 228 °C.

In the case of `COC(=O)[C@]1(C)Cc2c([nH]c3ccc(Cl)cc23)[C@@H](c2cccc(O)c2)N1` (racemic), the melting point lay within 240 to 241 °C.

Consider `O=C(C(=O)N1CCC(c2nnnn2-c2ccccc2)CC1)c1c[nH]c2c(-n3ccnn3)ncc(F)c12`, for which the melting point fell in the range of 257 to 258 °C.

`CCCCCCCCCCCCCCC(COC(C)=O)(COC(C)=O)NC(C)=O` returned a melting point of 84 to 85.5 °C.

With `OCCNc1nc2ccc(Cl)cc2c2nc(-c3ccco3)nn12`, the melting point fell in the range of 214 to 217 °C.

`CC(C)(C)N1CCCC1=C(C#N)c1ccc(Cl)cc1` came in with a melting point of 150 to 153 °C.

For `O=C(CNC(=O)c1cc([N+](=O)[O-])c(F)cc1Cl)OCc1ccccc1`, the melting point lay within 108 to 110 °C.

`Oc1ccc2c(c1)OCC(c1cccc(C(F)(F)F)c1)C2c1ccc(OCCN2CCCC2)cc1` (stereo not given) returned a melting point of 87 to 89 °C.

In turn, `CCNc1nc(=S)n(Cc2ccc(OC)c(OC3CCCC3)c2)c2nc[nH]c12` displayed a melting point of 72 to 77 °C.

On to `CCOC(=O)c1c(NC2CCCCC2)c(C#N)c(=O)n2ccccc12`, for which the melting point was 140 to 141 °C.

`CCC(=O)c1cn(C)cc(-c2cccc(C(F)(F)F)c2)c1=O`: the melting point was in the range of 136 to 138 °C.

In turn, `COc1cc2c(cc1OC)C(CCN1CCN(c3cccc(Cl)c3)CC1)OCCC2` (stereo not given) returned a melting point of 125 to 126 °C.

In turn, `CC(C)NC(=O)c1c(NC(=O)c2cc(C(F)(F)F)nn2-c2ncccc2Cl)ccc2cn[nH]c12` came in with a melting point of 203 to 205 °C.

Take `O=C(c1ccc(F)nc1)N1CCC[C@H](c2nc(-c3ccc[nH]3)no2)C1`: the melting point was in the range of 131 to 132 °C.

Compound `CC(NC(=O)OCc1ccccc1)C(=O)NCCc1ccccc1` (stereo not given) yielded a melting point of 125 to 126 °C.

Take `O=C(N[C@@H](Cc1ccccc1)C(=O)NC(O)C(=O)O)OCc1ccccc1` (stereo not given in full): the melting point is 117 to 127 °C.

As for `FC(F)(F)c1ccc(NC(=S)Nc2cc(C(F)(F)F)nc(C(F)(F)F)c2)cc1`, the melting point was 125 to 132 °C.

The compound `CN1CCC(c2c[nH]c3ccc(Sc4ccccc4)cc23)CC1` gave a melting point of 147 to 150 °C.

Compound `CC(C)(O)CCCCCc1ccc(C=Cc2ccc(CO)c(CO)c2)cc1` had a melting point of 112 to 114 °C.

`COc1ccc(C(=O)NC(=O)Nc2ccc3c(c2)NC(=O)/C3=C\c2ccncc2)cc1` showed a melting point of 270 to 275 °C.

For `O=C1Nc2cccc(-c3ccc(Oc4ccccc4)cc3)c2C12COc1cc3c(cc12)OCCO3` (stereo not given), the melting point lay within 243 to 246 °C.

`CCOC(=O)C1(CC(N)=O)C(=O)N2CCOc3cc(Cl)cc1c32` (stereo not given): the melting point was 227 to 229 °C.

`O=C1c2nccc([N+](=O)[O-])c2-c2nc3ccccc3c3ccnc1c23` displayed a melting point of over 260 °C.

In the case of `CN(c1cccc2cc(C3=NCC(C)(CCOS(C)(=O)=O)S3)[nH]c12)S(=O)(=O)c1cccs1` (stereo not given), the melting point was in the range of 149 to 150 °C.

On to `CC(C)(C)c1cc2c(c(C(=O)Nc3ccc(S(=O)(=O)C(F)(F)F)cc3Cl)c1O)CCCC2`, for which the melting point is 151 °C.

In turn, `O=C(c1sc(Nc2ccccc2)c2c1CCc1cnoc1-2)N1CCOCC1` showed a melting point of 177 to 178 °C.

`O=C(O)CCCCCCc1nc2ccccc2s1` had a melting point of 62 to 63 °C.

In turn, `O=c1[nH]c2cccnc2n1-c1ccccc1F` showed a melting point of 195 °C.

`COC(=O)NN[C@@H]1c2cc(C#N)ccc2OC(C)(C)[C@H]1O` (relative stereo) gave a melting point of 174 to 175 °C.

For the compound `COc1cc(C2=NC(C)(C)C(c3ccncc3)C2)cc(OC)c1OC` (stereo not given), the melting point fell in the range of 143 to 144 °C.

With `CC(C)(C)c1ccc(-c2c(Cl)c(CN3C(=O)CCC3=O)nc3sc4c(c23)CCN(Cc2ccccc2)C4)cc1`, the melting point was in the range of 198 to 199 °C.

For `N[C@@H](Cc1ccc([N+](=O)[O-])cc1I)C(=O)O`, the melting point was over 200 °C.

As for `O=C(CC(=O)C1CC1)c1ccccn1`, the melting point lay within 77 to 78 °C.

On to `CC1(CC(=O)O)CCc2ccccc2C1=O` (stereo not given), for which the melting point lay in the range of 114 to 116 °C.

The compound `CCCc1nc(C(C)(C)O)c(-c2nnn[nH]2)n1Cc1ccc(-c2ccccc2C(=O)C(=O)O)cc1` gave a melting point of 169 to 170 °C.

`CNC(=S)C1=CC(CF)(CF)Oc2ccc(C(F)(F)C(F)(F)C(F)(F)F)cc21` displayed a melting point of 125 to 126 °C.

Take `N=C(O)c1cc(C(O)=NCCO)c(C(=O)O)cc1C(=O)O`: the melting point lay in the range of 279 to 280 °C.

In the case of `CC(C)Cc1ccc2c(c1O)C(=O)c1c(ccc(CC(C)C)c1O)C2=O`, the melting point was 138 to 140 °C.

The compound `O=C(O)c1c2nc3ccccc3c-2[nH]c2ccc(F)cc12` showed a melting point of over 243 °C.

In turn, `CC(C)C(=O)c1[nH]c(C(CC2CCCC2)c2ccc(S(C)(=O)=O)cc2)nc1F` (stereo not given) gave a melting point of 161 to 162 °C.

In the case of `COc1cc(OC)nc(NC#N)n1`, the melting point stood at 202 °C.

Regarding `COc1ccc(CC2(C)CN(C(c3ccccc3)c3ccccc3)CCN2)cc1OC` (stereo not given), the melting point worked out at 123 °C.

In turn, `COc1cccc2c1CCc1c-2occ(C=O)c1=O` showed a melting point of 201 to 202 °C.

In the case of `c1ccc(C(c2ccccc2)N2CCN(CCCSc3ccc4nncn4n3)CC2)cc1`, the melting point was 79 to 80 °C.

`COc1ccc2c(c1)C(c1ccncc1)=Nc1cc(Cl)ccc1O2` had a melting point of 158 to 160 °C.

As for `CC(=O)N[C@@H](CSC(=O)C(C)(C)C)C(=O)NCCSC(=O)C(C)C`, the melting point was 103 to 104 °C.

Turning to `CCCc1c2c(cc3[nH]c(=O)c(=O)oc13)CCCC2`, the melting point was in the range of 175 to 180 °C.

`CC(C)n1nc(-c2sc(C(=O)N3CCN(C)CC3)nc2-c2ccccc2)ccc1=O` registered a melting point of 155 to 156 °C.

Take `CCOC(=O)C1=Cc2cc(Cl)c(Oc3ccc(CC)cc3)cc2OC1C(F)(F)F` (stereo not given): the melting point is 109 to 110 °C.

In the case of `CCOC(=O)CNCc1cc(I)ccc1N`, the melting point is 58 to 61 °C.

Regarding `COc1cc(-c2nc3ccc(OCCCN(C)C)cc3n2Cc2ccccc2Br)cc(OC)c1OC`, the melting point stood at 141 °C.

For `COC(=O)C1=C(C)Nc2c(c(=O)n(C)c(=O)n2C)C1c1cccc(Cl)c1` (stereo not given), the melting point came out at 230 °C.

`CC1Oc2c(C#N)cc(F)cc2C=C1n1nc(C(F)(F)F)n(C)c1=S` (stereo not given) yielded a melting point of 144 °C.

`CC(C)(C)c1ccc([C@H]2CCCN2[S@@](=O)C(C)(C)C)cc1` yielded a melting point of 45 to 50 °C.

As for `CCc1nnc(-c2cn3c(C)c(CC)c(OC)nc3n2)o1`, the melting point lay within 170 to 172 °C.

On to `Cc1cccc(NC(=O)N[C@H]2C[C@@](N)(C(=O)O)[C@@H]3[C@@H](C(=O)O)[C@@H]32)c1` (relative stereo), for which the melting point is over 250 °C.

With `Cc1cccc(NC(=O)NCC(=O)N2[C@@H](C(=O)OC(C)(C)C)C[C@H](CO)[C@H]2c2ccccc2)c1` (racemic), the melting point was 168 °C.

With `COc1ccc2c(=O)n3c(cc2c1)SCCC3`, the melting point lay within 86 to 87 °C.

Consider `CCCCC1C(=O)N(C(=O)NCCc2ccc(S(=O)(=O)NC(=O)NC3CCC(C)CC3)cc2)CCC1C` (stereo not given), for which the melting point was in the range of 131 to 133 °C.

In turn, `O=c1[nH]c2c(c3nc(-c4ccccn4)nn13)CN(Cc1ccccc1)CC2` gave a melting point of 290 °C.

Turning to `COC(=O)CCc1ccc(OCc2cccc(-c3cccc(C(=O)O)c3)c2)cc1`, the melting point was 180 to 185 °C.

`CCOC(=O)Cn1c(=O)c(=O)[nH]c2ccc3ccc(-n4ccc(CNC(=O)c5ccccc5)c4)cc3c21` came in with a melting point of over 250 °C.

Regarding `CCOc1ccc2c(c1)CCc1c(cccc1C(=O)O)S2`, the melting point was 165 to 167 °C.

Take `CC(C)C(NC(=O)C(NC(=O)C1CCCN1C(=O)OC(C)(C)C)C(Cc1ccccc1)C(=O)O)C(=O)NC(Cc1ccc(O)cc1)C(=O)OCc1ccccc1` (stereo not given): the melting point was in the range of 75 to 78 °C.

In turn, `N#CCc1ccc(-n2cc(Cl)cn2)cc1Cl` showed a melting point of 140 °C.

Compound `COc1ccc(CCCN(CCCc2ccc(OC)c(OC)c2)C(=O)N(C)O)cc1OC` displayed a melting point of 93 to 94 °C.

Turning to `CCCc1cc(C(=O)O)cc(CCC)c1OCCCCCCc1cccc(OC)c1OC`, the melting point fell in the range of 61 to 65 °C.

`CCCc1cc(=O)oc2cc(OC(=O)CC)cc(O)c12` registered a melting point of 166 to 168 °C.

Compound `N#Cc1cccc2c1CCC2=NO` came in with a melting point of 200 to 202 °C.

`CCCCCCNc1ccc(Oc2ccc3nc(COc4ccc(CC5SC(=O)NC5=O)cc4)n(C)c3c2)cc1` (stereo not given) displayed a melting point of 177 to 179 °C.

For `COC(=O)c1c(C(F)F)nc(C(F)(F)F)c(C(=O)Cl)c1CC(C)C`, the melting point lay within 71 to 75 °C.

Compound `O=S(=O)(Cc1ccccc1)c1nnnn1Cc1ccccc1` yielded a melting point of 94 to 96 °C.

With `Cn1nc(C(=O)O)c(=O)n(-c2ccc(Cl)cc2)c1=O`, the melting point was 234 to 236 °C.

Compound `Cc1nnc(-c2ccc3occ(-c4ccc(S(=O)Cc5ccccc5C#N)cc4)c3c2)o1` (stereo not given) came in with a melting point of 171 to 172 °C.

Take `CSc1nn2c(N3CCOCC3)cc(C)nc2c1S(=O)(=O)c1ccccc1`: the melting point is 206 to 208 °C.

`CN(Cc1ccccc1)C(=O)c1ccc2nonc2c1` registered a melting point of 105 to 106 °C.

As for `ON=C1CCN(C2c3ccccc3COc3ccc(Br)cc32)CC1` (stereo not given), the melting point lay within 223 to 225 °C.
